Results published in US20250059171A1 (Hoffmann-La Roche Inc., priority 2021, published 2025).

Key:
SARS-CoV-2 3CLpro = SARS-CoV-2 3CLpro (Severe acute respiratory syndrome coronavirus 2, UniProt P0DTD1); assay: biochemical
HCoV-229E 3CLpro = HCoV-229E 3CLpro (Human coronavirus 229E, UniProt P0C6X1); assay: HCoV-229E 3CLpro inhibition assay (FRET); assay type: biochemical
MERS-CoV 3CLpro = MERS-CoV 3CLpro (Middle East respiratory syndrome-related coronavirus, UniProt K9N7C7); assay: biochemical
SARS-CoV 3CLpro = SARS-CoV 3CLpro (Severe acute respiratory syndrome coronavirus, UniProt P0C6X7); assay: biochemical

Chain of MERS-CoV 3CLpro (K9N7C7 3248-3553): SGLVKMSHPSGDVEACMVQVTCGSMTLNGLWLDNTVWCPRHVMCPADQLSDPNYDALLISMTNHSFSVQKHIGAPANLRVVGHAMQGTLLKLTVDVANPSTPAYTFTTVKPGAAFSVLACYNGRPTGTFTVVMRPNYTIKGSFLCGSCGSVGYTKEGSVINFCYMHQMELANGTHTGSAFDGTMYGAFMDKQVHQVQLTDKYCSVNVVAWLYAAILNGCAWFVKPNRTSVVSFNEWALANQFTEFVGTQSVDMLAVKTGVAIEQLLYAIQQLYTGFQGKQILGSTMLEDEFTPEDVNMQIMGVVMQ
Chain of HCoV-229E 3CLpro (P0C6X1 2966-3267): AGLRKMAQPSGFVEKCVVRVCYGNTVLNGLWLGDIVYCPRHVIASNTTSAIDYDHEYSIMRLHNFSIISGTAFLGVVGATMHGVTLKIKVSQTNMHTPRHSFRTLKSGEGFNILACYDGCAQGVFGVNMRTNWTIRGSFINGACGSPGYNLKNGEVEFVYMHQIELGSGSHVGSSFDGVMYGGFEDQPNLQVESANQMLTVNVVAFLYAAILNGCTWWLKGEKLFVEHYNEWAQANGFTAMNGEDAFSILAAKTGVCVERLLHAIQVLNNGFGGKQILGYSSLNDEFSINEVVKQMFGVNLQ

Compound: CC[C@@H](C)[C@H](NC(=O)C1CC1(F)F)C(=O)N1C[C@H]2[C@@H]([C@H]1C(=O)NN(C[C@@H]1CCNC1=O)C(=O)[C@H](F)Cl)C2(C)C (mixture of isomers) [Example 113, Rac-2,2-difluoro-N-[(1S,2R)-2-methyl-1-[(1R,2S,5S)-6,6-dimethyl-2-[[[(2R)-2-chloro-2-fluoro-acetyl]-[[(3S)-2-oxopyrrolidin-3-yl]methyl]amino]carbamoyl]-3-azabicyclo[3.1.0]hexane-3-carbonyl]butyl]cyclopropanecarboxamide]
- IC50 (SARS-CoV-2 3CLpro): 10 nM
- IC50 (HCoV-229E 3CLpro): 23 nM
- IC50 (MERS-CoV 3CLpro): 79 nM
- IC50 (SARS-CoV 3CLpro): 15 nM

Compound: CC[C@@H](C)[C@H](NC(=O)C1CC1(F)F)C(=O)N1C[C@H]2[C@@H]([C@H]1C(=O)NN(C[C@@H]1CCNC1=O)C(=O)[C@@H](F)Cl)C2(C)C (mixture of isomers) [Example 124, Rac-2,2-difluoro-N-[(1S,2R)-2-methyl-1-[(1R,2S,5S)-6,6-dimethyl-2-[[[(2S)-2-chloro-2-fluoro-acetyl]-[[(3S)-2-oxopyrrolidin-3-yl]methyl]amino]carbamoyl]-3-azabicyclo[3.1.0]hexane-3-carbonyl]butyl]cyclopropanecarboxamide]
- IC50 (SARS-CoV-2 3CLpro): 26 nM
- IC50 (HCoV-229E 3CLpro): 41 nM
- IC50 (MERS-CoV 3CLpro): 115 nM
- IC50 (SARS-CoV 3CLpro): 45 nM

Compound: CCC(CC)[C@H](NC(=O)C(C)F)C(=O)N1CC(C)(C)C[C@H]1C(=O)NN(C[C@@H]1CCNC1=O)C(=O)[C@H](F)Cl (mixture of isomers) [Example 137, Rac-2-fluoro-N-[(1S)-2-ethyl-1-[(2S)-4,4-dimethyl-2-[[[(2R)-2-chloro-2-fluoro-acetyl]-[[(3S)-2-oxopyrrolidin-3-yl]methyl]amino]carbamoyl]pyrrolidine-1-carbonyl]butyl]propanamide]
- IC50 (SARS-CoV-2 3CLpro): 18 nM
- IC50 (HCoV-229E 3CLpro): 46 nM
- IC50 (MERS-CoV 3CLpro): 192 nM
- IC50 (SARS-CoV 3CLpro): 27 nM

Compound: CCC(C)(C)[C@H](NC(=O)C(C)F)C(=O)N1C[C@H]2[C@@H]([C@H]1C(=O)NN(C[C@@H]1CCNC1=O)C(=O)[C@@H](F)Cl)C2(C)C (mixture of isomers) [Example 146, Rac-2-fluoro-N-[(1S)-2,2-dimethyl-1-[(1R,2S,5S)-6,6-dimethyl-2-[[[(2S)-2-chloro-2-fluoro-acetyl]-[[(3S)-2-oxopyrrolidin-3-yl]methyl]amino]carbamoyl]-3-azabicyclo[3.1.0]hexane-3-carbonyl]butyl]propanamide]
- IC50 (SARS-CoV-2 3CLpro): 16 nM
- IC50 (HCoV-229E 3CLpro): 69 nM
- IC50 (MERS-CoV 3CLpro): 151 nM
- IC50 (SARS-CoV 3CLpro): 23 nM

Compound: CC(C)(C)[C@H](NC(=O)C(F)(F)F)C(=O)N1C[C@H]2[C@@H]([C@H]1C(=O)NN(C[C@H]1CCCNC1=O)C(=O)[C@H](F)Cl)C2(C)C (single isomer, unassigned) [Example 163a]
- IC50 (SARS-CoV-2 3CLpro): 9 nM
- IC50 (HCoV-229E 3CLpro): 52 nM
- IC50 (MERS-CoV 3CLpro): 226 nM
- IC50 (SARS-CoV 3CLpro): 18 nM

Compound: CC(C)(C)[C@H](NC(=O)C(F)(F)F)C(=O)N1C[C@H]2[C@@H]([C@H]1C(=O)NN(C[C@@H]1CCCNC1=O)C(=O)[C@H](F)Cl)C2(C)C (single isomer, unassigned) [Example 163b]
- IC50 (SARS-CoV-2 3CLpro): 17 nM
- IC50 (HCoV-229E 3CLpro): 104 nM
- IC50 (MERS-CoV 3CLpro): 469 nM
- IC50 (SARS-CoV 3CLpro): 33 nM

Compound: CC[C@H](C)[C@H](NC(=O)C(F)(F)F)C(=O)N1C[C@H]2[C@@H]([C@H]1C(=O)NN(C[C@@H]1CCCNC1=O)C(=O)[C@H](F)Cl)C2(C)C (single isomer, unassigned) [Example 165a]
- IC50 (SARS-CoV-2 3CLpro): 11 nM
- IC50 (HCoV-229E 3CLpro): 38 nM
- IC50 (MERS-CoV 3CLpro): 185 nM
- IC50 (SARS-CoV 3CLpro): 12 nM

Compound: CC[C@H](C)[C@H](NC(=O)C(F)(F)F)C(=O)N1C[C@H]2[C@@H]([C@H]1C(=O)NN(C[C@H]1CCCNC1=O)C(=O)[C@H](F)Cl)C2(C)C (single isomer, unassigned) [Example 165b]
- IC50 (SARS-CoV-2 3CLpro): 20 nM
- IC50 (HCoV-229E 3CLpro): 57 nM
- IC50 (MERS-CoV 3CLpro): 291 nM
- IC50 (SARS-CoV 3CLpro): 36 nM
